Laboratory results published in patent publication US20170121315A1, “HETEROBICYCLICALLY SUBSTITUTED 4-OXOBUTANE ACID DERIVATIVES AND USE THEREOF” (priority 2014, published 2017).

What was measured:
Format in all cases: biochemical
MMP-13 = target: T1, MMP-13 (Homo sapiens, UniProt P45452); test: In vitro MMP-13 inhibition test; details: human MMP-13
T1 construct: purchased R&D Systems 511-MP
Description: (§1) The MMP-mediated amidolytic cleavage of a suitable peptide substrate leads to an increase in fluorescent light here too. The signal intensity of the fluorescent light is directly proportional to the enzyme activity. The active concentration of a test compound at which half the enzyme is inhibited (50% signal intensity of the fluorescent light) is reported as the IC50 value.
(§2) Recombinant MMP-13 (R&D Systems, 511-MP) is chemically activated in accordance with the manufacturer's instructions using APMA. 1 μl of the test compound to be analysed (as a solution in DMSO, suitable concentrations e.g. 1 nM to 30 μM) is pipetted into 24 μl of activated enzyme (final concentration e.g. 0.1 nM) in reaction buffer (50 mM Tris/HCl pH 7.5, 10 mM CaCl2, 150 mM NaCl, 0.05% Brij®-35) in a white 384-hole microtiter plate (MTP). The enzymatic reaction is started by adding the intramolecularly quenched Mca-Pro-Leu-Gly-Leu-Dpa(Dnp)-Ala-Arg-NH2 substrate (final concentration e.g. 10 μM; R&D Systems, ES-001), so as to result in a total test volume of 50 μl. The course of the MMP-13 reaction is measured by measuring the fluorescence intensity (excitation 320 nm, emission 410 nm) over a suitable period of time (e.g. over 120 min at a temperature of 32° C.).

MMP-3 = target: T2, MMP-3 (Homo sapiens, UniProt P08254); test: In vitro MMP-3 inhibition test; details: human MMP-3
T2 construct: purchased R&D Systems 513-MP
T2 sequence (P08254 100-477): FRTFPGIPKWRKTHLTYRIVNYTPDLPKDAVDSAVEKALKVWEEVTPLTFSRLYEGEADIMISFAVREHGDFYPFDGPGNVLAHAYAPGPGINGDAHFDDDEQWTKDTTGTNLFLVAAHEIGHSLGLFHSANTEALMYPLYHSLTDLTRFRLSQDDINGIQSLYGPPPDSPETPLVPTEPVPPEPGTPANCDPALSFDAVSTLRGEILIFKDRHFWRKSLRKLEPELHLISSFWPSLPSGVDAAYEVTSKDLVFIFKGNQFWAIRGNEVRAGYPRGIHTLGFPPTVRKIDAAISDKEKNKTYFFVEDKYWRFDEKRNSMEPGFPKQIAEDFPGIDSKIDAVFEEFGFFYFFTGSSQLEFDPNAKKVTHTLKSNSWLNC
Description: as §1
as §2, with “MMP-3” for “MMP-13”, “513-MP)” for “511-MP)”, “2” for “0.1”, “Mca-Arg-Pro-Lys-Pro-Val-Glu-Nval-Trp-Arg-Lys(Dnp)-NH2” for “Mca-Pro-Leu-Gly-Leu-Dpa(Dnp)-Ala-Arg-NH2”, “ES-002),” for “ES-001),”

MMP-16 = target: T3, MMP-16 (Homo sapiens, UniProt P51512); test: In vitro MMP-16 inhibition test; details: human MMP-16
T3 construct: purchased R&D Systems 1785-MP
T3 sequence (P51512 120-564 limits assumed): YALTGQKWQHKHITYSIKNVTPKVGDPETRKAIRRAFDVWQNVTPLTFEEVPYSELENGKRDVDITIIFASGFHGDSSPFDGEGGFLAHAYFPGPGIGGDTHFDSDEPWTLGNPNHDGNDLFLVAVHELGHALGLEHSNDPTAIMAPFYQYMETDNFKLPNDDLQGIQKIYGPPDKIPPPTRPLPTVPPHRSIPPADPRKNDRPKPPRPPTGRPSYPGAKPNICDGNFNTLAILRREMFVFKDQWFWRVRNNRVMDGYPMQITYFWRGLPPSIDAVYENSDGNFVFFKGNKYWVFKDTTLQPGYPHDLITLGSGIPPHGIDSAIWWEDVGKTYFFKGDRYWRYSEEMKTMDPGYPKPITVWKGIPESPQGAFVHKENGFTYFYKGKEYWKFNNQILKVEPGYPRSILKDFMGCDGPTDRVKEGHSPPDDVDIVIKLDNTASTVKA
Description: as §1
Recombinant MMP-16 (R&D Systems, 1785-MP) is enzymatically activated in accordance with the manufacturer's instructions using recombinant furin (R&D Systems, 1503-SE). 1 μl of the test compound to be analysed (as a solution in DMSO, suitable concentrations e.g. 1 nM to 30 μM) is pipetted into 24 μl of activated enzyme (final concentration e.g. 1 nM) in reaction buffer (50 mM Tris/HCl pH 7.5, 10 mM CaCl2, 150 mM NaCl, 0.05% Brij®-35) in a white 384-hole microtiter plate (MTP). The enzymatic reaction is started by adding the intramolecularly quenched Mca-Lys-Pro-Leu-Gly-Leu-Dpa(Dnp)-Ala-Arg-NH2 substrate (final concentration e.g. 5 μM; R&D Systems, ES-010), so as to result in a total test volume of 50 μl. The course of the MMP-16 reaction is measured by measuring the fluorescence intensity (excitation 320 nm, emission 410 nm) over a suitable period of time (e.g. over 120 min at a temperature of 32° C.).

MMP-1 = target: T4, MMP-1 (Homo sapiens, UniProt P03956); test: In vitro MMP-1 inhibition test; details: human MMP-1
T4 construct: purchased R&D Systems 901-MP
T4 sequence (P03956 100-469): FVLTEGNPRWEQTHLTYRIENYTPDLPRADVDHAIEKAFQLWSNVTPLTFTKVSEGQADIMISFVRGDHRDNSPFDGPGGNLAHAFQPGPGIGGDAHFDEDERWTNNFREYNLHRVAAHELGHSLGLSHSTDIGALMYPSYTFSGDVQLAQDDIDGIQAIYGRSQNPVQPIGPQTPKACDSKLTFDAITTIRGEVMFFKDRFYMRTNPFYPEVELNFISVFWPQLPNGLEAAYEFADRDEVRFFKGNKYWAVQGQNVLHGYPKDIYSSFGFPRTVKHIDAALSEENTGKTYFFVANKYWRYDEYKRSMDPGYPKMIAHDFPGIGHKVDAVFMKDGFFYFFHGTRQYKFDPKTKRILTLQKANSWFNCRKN
Description: as §1
as §2, with “MMP-1” for “MMP-13”, “901-MP)” for “511-MP)”, “2” for “0.1”

| Structure (SMILES) | IC50 (MMP-13) | IC50 (MMP-3) | IC50 (MMP-16) | IC50 (MMP-1) |
| --- | --- | --- | --- | --- |
| O=C(CC(CCn1nnc2ccccc2c1=O)C(=O)O)c1cc2cc(OCCC3CCOCC3)ccc2o1 (racemic) [Example 6, (+/−)-4-Oxo-2-[2-(4-oxo-1,2,3-benzotriazin-3(4H)-yl)ethyl]-4-{5-[2-(tetrahydro-2H-pyran-4-yl)ethoxy]-1-benzofur-2-yl}butanoic acid] | 0.73 µM | 26 µM | > 40 µM | > 40 µM |
| O=C(CC(CCn1nnc2ccccc2c1=O)C(=O)O)c1cc2cc(OCCc3ccc(Cl)cc3)ccc2o1 (racemic) [Example 2, (+/−)-4-{5-[2-(4-Chlorophenyl)ethoxy]-1-benzofur-2-yl}-4-oxo-2-[2-(4-oxo-1,2,3-benzotriazin-3(4H)-yl)ethyl]butanoic acid] | 2.2 µM | 25 µM | > 40 µM | > 40 µM |
| O=C(CC(CCn1nnc2ccccc2c1=O)C(=O)O)c1noc2cc(OCC3CC3)ccc12 (racemic) [Example 150, (+/−)-4-[6-(Cyclopropylmethoxy)-1,2-benzoxazol-3-yl]-4-oxo-2-[2-(4-oxo-1,2,3-benzotriazin-3(4H)-yl)ethyl]butanoic acid] | 2.4 µM | 33 µM | 11 µM | > 40 µM |
| O=C(CC(CCn1nnc2ccccc2c1=O)C(=O)O)c1noc2cc(OCCc3ccccc3)ccc12 (racemic) [Example 144, (+/−)-4-Oxo-2-[2-(4-oxo-1,2,3-benzotriazin-3(4H)-yl)ethyl]-4-[6-(2-phenylethoxy)-1,2-benzoxazol-3-yl]butanoic acid] | 1.6 µM | 18 µM | 15 µM | > 40 µM |
| O=C(CC(CCn1nnc2ccc(C(F)(F)F)cc2c1=O)C(=O)O)c1noc2cc(OCC3CCOCC3)ccc12 (racemic) [Example 155, (+/−)-4-Oxo-2-{2-[4-oxo-6-(trifluoromethyl)-1,2,3-benzotriazin-3(4H)-yl]ethyl}-4-[6-(tetrahydro-2H-pyran-4-ylmethoxy)-1,2-benzoxazol-3-yl]butanoic acid] | 2.7 µM | 19 µM | 30 µM | > 40 µM |
| CCCCCOc1ccc2c(C(=O)CC(CCn3nnc4ccccc4c3=O)C(=O)O)coc2c1 (single isomer, unassigned) [Example 91, 4-Oxo-2-[2-(4-oxo-1,2,3-benzotriazin-3(4H)-yl)ethyl]-4-[6-(pentyloxy)-1-benzofur-3-yl]butanoic acid] | 0.37 µM | 17 µM | 13 µM | > 40 µM |
| O=C(CC(CCn1nnc2ccccc2c1=O)C(=O)O)c1cc2ccc(OCC3CC3)cc2s1 (single isomer, unassigned; (+)) [Example 112, (+)-4-[6-(Cyclopropylmethoxy)-1-benzothiophen-2-yl]-4-oxo-2-[2-(4-oxo-1,2,3-benzotriazin-3(4H)-yl)ethyl]butanoic acid] | 1.3 µM | 6.4 µM | 37 µM | > 40 µM |
| O=C(CC(CCn1nnc2ccccc2c1=O)C(=O)O)c1cc2ccc(OCCc3ccccc3)cc2o1 (racemic) [Example 73, (+/−)-4-Oxo-2-[2-(4-oxo-1,2,3-benzotriazin-3(4H)-yl)ethyl]-4-[6-(2-phenylethoxy)-1-benzofur-2-yl]butanoic acid] | 4.7 µM | 29 µM | > 40 µM | > 40 µM |
| NC(=O)c1cccc(COc2ccc3oc(C(=O)CC(CCn4nnc5ccccc5c4=O)C(=O)O)cc3c2)c1 (single isomer, unassigned; (+)) [Example 34, (+)-4-{5-[(3-Carbamoylbenzyl)oxy]-1-benzofur-2-yl}-4-oxo-2-[2-(4-oxo-1,2,3-benzotriazin-3(4H)-yl)ethyl]butanoic acid] | 1.6 µM | 34 µM | > 40 µM | > 40 µM |
